Results from patent US20230081426A1, “COMPOUNDS AND METHODS FOR KRAS MODULATION AND INDICATIONS THEREFOR” (Plexxikon Inc., priority 2020, published 2023).

These compounds were tested against T1, G12D-mutant human KRAS (amino acid residues 1-188) (Homo sapiens, UniProt P01116, G12D) (assay: KRAS Binding Disruption Assay (AlphaScreen; biotinylated KRpep-2d analogue or RAF1-RBD), G12D). Settings: KRAS G12D; geometric mean; read-out: KRAS GMean IC50 (uM) MUTATION: G12D.
T1 construct: G12D or G12C-mutant human KRAS (amino acid residues 1-188) with FLAG tag; made in house; host or cells: E. coli
T1 sequence (P01116 1-188 isoform P01116-2 G12D): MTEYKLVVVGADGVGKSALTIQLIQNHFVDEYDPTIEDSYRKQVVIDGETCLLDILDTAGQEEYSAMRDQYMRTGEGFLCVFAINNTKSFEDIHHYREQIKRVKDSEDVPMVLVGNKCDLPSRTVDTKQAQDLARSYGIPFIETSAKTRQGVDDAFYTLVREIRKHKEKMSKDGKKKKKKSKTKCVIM
Method: Compound binding disrupts the interaction of KRpep-2d or RAF1-RBD with KRAS, leading to a decrease in Alpha signal.
All assay components were prepared in 20 mM HEPES (pH 7.5), 100 mM NaCl, 5 mM MgCl2, 0.01% Tween-20, and 0.01% BSA. Biotinylated analogues of KRpep-2d were custom synthesized. The binding disruption assays were performed using 5-20 nM of mutant KRAS and 5-20 nM of either biotinylated KRpep-2d analogue or RAF1-RBD. 19 μL of KRAS protein and 4 μL of biotinylated KRpep-2d or RAF1-RBD were added to the wells of a 384-well plate containing 1 μL of various concentrations of test compound or DMSO vehicle. 16 wells containing KRAS, biotinylated KRpep-2d or RAF1-RBD, and 5% DMSO served as high controls. 16 wells containing KRAS only and 5% DMSO served as low controls. Binding reactions were incubated for 1 hour at 25° C., then Anti-Flag Acceptor and Streptavidin Donor Alpha beads were added at a final concentration of 10 μg/mL for an additional hour at room temperature. Alpha signal was read out on a Perkin Elmer Envision HTS instrument. The percentage inhibition at individual compound concentrations relative to high and low controls was calculated. The data were analyzed by using nonlinear regression to generate IC50 values.

IC50, 0.0001 to 10 µM:
CCN(CC)C1CCN(c2nc(N3C[C@H]4CC[C@@H](C3)N4)c3ccc(-c4cc(O)cc5ccccc45)c(F)c3n2)C1 (stereo partly drawn) [P-0530, 4-(4-((1R,5S)-3,8-diazabicyclo[3.2.1]octan-3-yl)-2-(3-(diethylamino)pyrrolidin-1-yl)-8-fluoroquinazolin-7-yl)naphthalen-2-ol]
CCNC1CCN(c2nc(N3C[C@H]4CC[C@@H](C3)N4)c3ccc(-c4cc(O)cc5ccccc45)c(F)c3n2)C1 (stereo partly drawn) [P-0531, 4-(4-((1R,5S)-3,8-diazabicyclo[3.2.1]octan-3-yl)-2-(3-(ethylamino)pyrrolidin-1-yl)-8-fluoroquinazolin-7-yl)naphthalen-2-ol]
Oc1cc(-c2c(Cl)cc3c(N4C[C@H]5CC[C@@H](C4)N5)nc(OCCCN4CCC(F)(F)C4)nc3c2F)c2ccccc2c1 [P-0532, 4-(4-((1R,5S)-3,8-diazabicyclo[3.2.1]octan-3-yl)-6-chloro-2-(3-(3,3-difluoropyrrolidin-1-yl)propoxy)-8-fluoroquinazolin-7-yl)naphthalen-2-ol]
Fc1c(-c2csc3ccccc23)ccc2c(N3C[C@H]4CC[C@@H](C3)N4)nc(OCC34CCCN3CCC4)nc12 [P-0533, 7-(benzo[b]thiophen-3-yl)-4-((1R,5S)-3,8-diazabicyclo[3.2.1]octan-3-yl)-8-fluoro-2-((tetrahydro-1H-pyrrolizin-7a(5H)-yl)methoxy)quinazoline]
Fc1c(-c2csc3cccc(Cl)c23)ccc2c(N3C[C@H]4CC[C@@H](C3)N4)nc(OCC34CCCN3CCC4)nc12 [P-0534]
CCc1cc(F)cc2[nH]cc(-c3ccc4c(N5C[C@H]6CC[C@@H](C5)N6)nc(OCC56CCCN5CCC6)nc4c3F)c12 [P-0535, 4-((1R,5S)-3,8-diazabicyclo[3.2.1]octan-3-yl)-7-(4-ethyl-6-fluoro-1H-indol-3-yl)-8-fluoro-2-((tetrahydro-1H-pyrrolizin-7a(5H)-yl)methoxy)quinazoline]
Oc1cc(-c2ccc3c(N4C[C@H]5CC[C@@H](C4)N5)nc(OCC4(C(F)(F)F)CC4)nc3c2F)c2ccccc2c1 [P-0536, 4-(4-((1R,5S)-3,8-diazabicyclo[3.2.1]octan-3-yl)-8-fluoro-2-((1-(trifluoromethyl)cyclopropyl)methoxy)quinazolin-7-yl)naphthalen-2-ol]
CC(C)(CNC(=O)CO)COc1nc(N2C[C@H]3CC[C@@H](C2)N3)c2ccc(-c3cc(O)cc4ccccc34)c(F)c2n1 [P-0537, N-(3-((4-((1R,5S)-3,8-diazabicyclo[3.2.1]octan-3-yl)-8-fluoro-7-(3-hydroxynaphthalen-1-yl)quinazolin-2-yl)oxy)-2,2-dimethylpropyl)-2-hydroxyacetamide]
C=Cc1cccc2cccc(-c3ccc4c(N5C[C@H]6CC[C@@H](C5)N6)nc(OCC56CCCN5CCC6)nc4c3F)c12 [P-0538, 4-((1R,5S)-3,8-diazabicyclo[3.2.1]octan-3-yl)-8-fluoro-2-((tetrahydro-1H-pyrrolizin-7a(5H)-yl)methoxy)-7-(8-vinylnaphthalen-1-yl)quinazoline]
O=[N+]([O-])c1cccc2cncc(-c3ccc4c(N5C[C@H]6CC[C@@H](C5)N6)nc(OCC56CCCN5CCC6)nc4c3F)c12 [P-0539, 4-((1R,5S)-3,8-diazabicyclo[3.2.1]octan-3-yl)-8-fluoro-7-(5-nitroisoquinolin-4-yl)-2-((tetrahydro-1H-pyrrolizin-7a(5H)-yl)methoxy)quinazoline]
Nc1ccc(Cl)c(-c2c(Cl)cc3c(N4C[C@H]5CC[C@@H](C4)N5)nc(OCC45CCCN4CCC5)nc3c2F)c1 [P-0540, 3-(4-((1R,5S)-3,8-diazabicyclo[3.2.1]octan-3-yl)-6-chloro-8-fluoro-2-((tetrahydro-1H-pyrrolizin-7a(5H)-yl)methoxy)quinazolin-7-yl)-4-chloroaniline]
CC(C)(CO)COc1nc(N2C[C@H]3CC[C@@H](C2)N3)c2ccc(-c3cccc4cccc(Cl)c34)c(F)c2n1 [P-0541, 3-((4-((1R,5S)-3,8-diazabicyclo[3.2.1]octan-3-yl)-7-(8-chloronaphthalen-1-yl)-8-fluoroquinazolin-2-yl)oxy)-2,2-dimethylpropan-1-ol]
CS(=O)(=O)NCCN1[C@@H]2CC[C@H]1CN(c1nc(OCC34CCCN3CCC4)nc3c(F)c(-c4cc(O)cc5ccccc45)ccc13)C2 [P-0542, N-(2-((1R,5S)-3-(8-fluoro-7-(3-hydroxynaphthalen-1-yl)-2-((tetrahydro-1H-pyrrolizin-7a(5H)-yl)methoxy)quinazolin-4-yl)-3,8-diazabicyclo[3.2.1]octan-8-yl)ethyl)methanesulfonamide]
NC(=O)NCCN1[C@@H]2CC[C@H]1CN(c1nc(OCC34CCCN3CCC4)nc3c(F)c(-c4cc(O)cc5ccccc45)ccc13)C2 [P-0543, 1-(2-((1R,5S)-3-(8-fluoro-7-(3-hydroxynaphthalen-1-yl)-2-((tetrahydro-1H-pyrrolizin-7a(5H)-yl)methoxy)quinazolin-4-yl)-3,8-diazabicyclo[3.2.1]octan-8-yl)ethyl)urea]
CC(=O)NCCN1[C@@H]2CC[C@H]1CN(c1nc(OCC34CCCN3CCC4)nc3c(F)c(-c4cc(O)cc5ccccc45)ccc13)C2 [P-0544, N-(2-((1R,5S)-3-(8-fluoro-7-(3-hydroxynaphthalen-1-yl)-2-((tetrahydro-1H-pyrrolizin-7a(5H)-yl)methoxy)quinazolin-4-yl)-3,8-diazabicyclo[3.2.1]octan-8-yl)ethyl)acetamide]
NCCN1[C@@H]2CC[C@H]1CN(c1nc(OCC34CCCN3CCC4)nc3c(F)c(-c4cc(O)cc5ccccc45)ccc13)C2 [P-0545, 4-(4-((1R,5S)-8-(2-aminoethyl)-3,8-diazabicyclo[3.2.1]octan-3-yl)-8-fluoro-2-((tetrahydro-1H-pyrrolizin-7a(5H)-yl)methoxy)quinazolin-7-yl)naphthalen-2-ol]
NC1(CCO)CN(c2nc(N3C[C@H]4CC[C@@H](C3)N4)c3ccc(-c4cc(O)cc5ccccc45)c(F)c3n2)C1 [P-0546, 4-(2-(3-amino-3-(2-hydroxyethyl)azetidin-1-yl)-4-((1R,5S)-3,8-diazabicyclo[3.2.1]octan-3-yl)-8-fluoroquinazolin-7-yl)naphthalen-2-ol]
O=C1NC2(CCO1)CN(c1nc(N3C[C@H]4CC[C@@H](C3)N4)c3ccc(-c4cc(O)cc5ccccc45)c(F)c3n1)C2 [P-0547, 2-(4-((1R,5S)-3,8-diazabicyclo[3.2.1]octan-3-yl)-8-fluoro-7-(3-hydroxynaphthalen-1-yl)quinazolin-2-yl)-7-oxa-2,5-diazaspiro[3.5]nonan-6-one]
Cc1ccc2[nH]nc(C)c2c1-c1ccc2c(N3C[C@H]4CC[C@@H](C3)N4)nc(OCC34CCCN3CCC4)nc2c1F [P-0548, 4-((1R,5S)-3,8-diazabicyclo[3.2.1]octan-3-yl)-7-(3,5-dimethyl-1H-indazol-4-yl)-8-fluoro-2-((tetrahydro-1H-pyrrolizin-7a(5H)-yl)methoxy)quinazoline]
CCc1cccc2[nH]cc(-c3ncc4c(N5C[C@H]6CC[C@@H](C5)N6)nc(OCC56CCCN5CCC6)nc4c3F)c12 [P-0549, 4-((1R,5S)-3,8-diazabicyclo[3.2.1]octan-3-yl)-7-(4-ethyl-1H-indol-3-yl)-8-fluoro-2-((tetrahydro-1H-pyrrolizin-7a(5H)-yl)methoxy)pyrido[4,3-d]pyrimidine]
NC(=O)CN1[C@@H]2CC[C@H]1CN(c1nc(OCC34CCCN3CCC4)nc3c(F)c(-c4cc(O)cc5ccccc45)ccc13)C2 [P-0550, 2-((1R,5S)-3-(8-fluoro-7-(3-hydroxynaphthalen-1-yl)-2-((tetrahydro-1H-pyrrolizin-7a(5H)-yl)methoxy)quinazolin-4-yl)-3,8-diazabicyclo[3.2.1]octan-8-yl)acetamide]
CC(C)(C)OC(=O)NCCN1[C@@H]2CC[C@H]1CN(c1nc(OCC34CCCN3CCC4)nc3c(F)c(-c4cc(O)cc5ccccc45)ccc13)C2 [P-0551, tert-butyl (2-((1R,5S)-3-(8-fluoro-7-(3-hydroxynaphthalen-1-yl)-2-((tetrahydro-1H-pyrrolizin-7a(5H)-yl)methoxy)quinazolin-4-yl)-3,8-diazabicyclo[3.2.1]octan-8-yl)ethyl)carbamate]
O=C(O)CN1[C@@H]2CC[C@H]1CN(c1nc(OCC34CCCN3CCC4)nc3c(F)c(-c4cc(O)cc5ccccc45)ccc13)C2 [P-0552, 2-((1R,5S)-3-(8-fluoro-7-(3-hydroxynaphthalen-1-yl)-2-((tetrahydro-1H-pyrrolizin-7a(5H)-yl)methoxy)quinazolin-4-yl)-3,8-diazabicyclo[3.2.1]octan-8-yl)acetic acid]
